This passage reports IC50 results from patent US12258327B2, “5-membered heteroaryl-containing aminopyridine compounds as EGFR inhibitors” (YUHAN CORPORATION, priority 2021, dated 2025).

Structures are written as SMILES. Like-named read-outs stand apart in the source and are kept apart here.

The target in one test is EGFR del19/C797S (Homo sapiens, UniProt P00533, C797S/DEL746-750). Nature of the test: Biochemical EGFR kinase assay (Lance Ultra TR-FRET), double mutant del19/C797S. The procedure, abridged:
(§1)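 Enzyme reactions lasted 1 hour at room temperature with test compounds between 0.003 and 10 μM, followed by 10 mM EDTA quench.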
For orientation: TR-FRET usually uses a lanthanide donor and a delayed reading to cut background.

The next test has as its target EGFR wildtype (WT) (Homo sapiens, UniProt P00533). Nature of the test: Biochemical EGFR kinase assay (Lance Ultra TR-FRET), wildtype. The gist of the method:
as §1

The next test has as its target EGFR L858R/T790M/C797S (Homo sapiens, UniProt P00533, C797S/L858R/T790M). Nature of the test: Biochemical EGFR kinase assay (Lance Ultra TR-FRET), triple mutant L858R/T790M/C797S. The procedure, abridged:
as §1

For a further test, the target named is EGFR del19/T790M/C797S (Homo sapiens, UniProt P00533, C797S/DEL746-750/T790M). The experiment in a line: Biochemical EGFR kinase assay (Lance Ultra TR-FRET), triple mutant del19/T790M/C797S. The gist of the method:
as §1

A further test concerns the target EGFR L858R/C797S (Homo sapiens, UniProt P00533, C797S/L858R). The experiment in a line: Biochemical EGFR kinase assay (Lance Ultra TR-FRET), double mutant L858R/C797S. The procedure, abridged: as §1
The mark [1] stands for this setting: Km ATP, read-out: IC50 del19/C797S, Km ATP.
Setting [2] is: Km ATP, read-out: IC50 WT, Km ATP.
The mark [3] stands for this setting: Km ATP, read-out: IC50 L858R/T790M/C797S, Km ATP.
Setting [4] is: Km ATP, read-out: IC50 del19/T790M/C797S, Km ATP.
Where [5] appears, read: Km ATP, read-out: IC50 L858R/C797S, Km ATP.
Where [6] appears, read: IC50 del19/C797S (nM) 100 μM ATP, 100 μM ATP.
Where [7] appears, read: IC50 WT (nM) 100 μM ATP, 100 μM ATP.
The mark [8] stands for this setting: IC50 L858R/T790M/C797S (nM) 100 μM ATP, 100 μM ATP.
The mark [9] stands for this setting: IC50 del19/T790M/C797S (nM) 100 μM ATP, 100 μM ATP.
Where [10] appears, read: IC50 L858R/C797S (nM) 100 μM ATP, 100 μM ATP.
The mark [11] stands for this setting: Km ATP, read-out: IC50 del19/C797S (nM) Km ATP.
Setting [12] is: Km ATP, read-out: IC50 WT (nM) Km ATP.
Where [13] appears, read: Km ATP, read-out: IC50 L858R/T790M/C797S (nM) Km ATP.
[14] abbreviates: Km ATP, read-out: IC50 del19/T790M/C797S (nM) Km ATP.
The mark [15] stands for this setting: Km ATP, read-out: IC50 L858R/C797S (nM) Km ATP.

EGFR L858R/C797S, sequence (P00533 25-1210 C797S/L858R): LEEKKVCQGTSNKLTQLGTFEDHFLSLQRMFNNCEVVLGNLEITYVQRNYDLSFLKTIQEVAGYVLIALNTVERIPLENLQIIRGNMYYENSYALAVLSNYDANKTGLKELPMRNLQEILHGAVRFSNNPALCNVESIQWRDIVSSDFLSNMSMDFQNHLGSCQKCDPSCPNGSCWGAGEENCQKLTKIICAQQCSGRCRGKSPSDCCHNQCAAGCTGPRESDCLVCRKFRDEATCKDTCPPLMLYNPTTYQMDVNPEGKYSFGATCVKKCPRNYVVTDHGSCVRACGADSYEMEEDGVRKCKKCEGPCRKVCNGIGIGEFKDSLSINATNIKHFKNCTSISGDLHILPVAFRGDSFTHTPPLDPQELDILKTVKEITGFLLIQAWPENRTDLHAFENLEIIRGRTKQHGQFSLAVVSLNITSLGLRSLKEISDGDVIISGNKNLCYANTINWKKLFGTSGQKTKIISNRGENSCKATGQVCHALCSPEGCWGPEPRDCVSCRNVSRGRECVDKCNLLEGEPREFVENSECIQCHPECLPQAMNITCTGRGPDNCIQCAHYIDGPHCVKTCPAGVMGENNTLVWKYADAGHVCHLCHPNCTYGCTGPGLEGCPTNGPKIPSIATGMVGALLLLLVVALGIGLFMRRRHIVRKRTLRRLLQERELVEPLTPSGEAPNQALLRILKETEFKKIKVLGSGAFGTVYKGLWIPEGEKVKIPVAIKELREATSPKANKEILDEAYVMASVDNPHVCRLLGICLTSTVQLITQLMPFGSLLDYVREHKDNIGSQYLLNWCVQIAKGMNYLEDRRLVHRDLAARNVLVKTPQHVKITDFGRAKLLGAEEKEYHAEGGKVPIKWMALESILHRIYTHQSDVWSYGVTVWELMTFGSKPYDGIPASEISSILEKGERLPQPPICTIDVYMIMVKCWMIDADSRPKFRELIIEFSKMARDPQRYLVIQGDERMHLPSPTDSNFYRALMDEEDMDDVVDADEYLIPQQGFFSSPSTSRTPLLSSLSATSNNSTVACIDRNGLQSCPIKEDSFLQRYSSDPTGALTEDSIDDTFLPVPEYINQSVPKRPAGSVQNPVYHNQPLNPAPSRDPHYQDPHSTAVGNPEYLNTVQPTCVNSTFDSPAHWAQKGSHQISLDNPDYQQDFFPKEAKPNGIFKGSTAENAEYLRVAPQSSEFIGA
EGFR L858R/T790M/C797S, sequence (P00533 25-1210 T790M/C797S/L858R): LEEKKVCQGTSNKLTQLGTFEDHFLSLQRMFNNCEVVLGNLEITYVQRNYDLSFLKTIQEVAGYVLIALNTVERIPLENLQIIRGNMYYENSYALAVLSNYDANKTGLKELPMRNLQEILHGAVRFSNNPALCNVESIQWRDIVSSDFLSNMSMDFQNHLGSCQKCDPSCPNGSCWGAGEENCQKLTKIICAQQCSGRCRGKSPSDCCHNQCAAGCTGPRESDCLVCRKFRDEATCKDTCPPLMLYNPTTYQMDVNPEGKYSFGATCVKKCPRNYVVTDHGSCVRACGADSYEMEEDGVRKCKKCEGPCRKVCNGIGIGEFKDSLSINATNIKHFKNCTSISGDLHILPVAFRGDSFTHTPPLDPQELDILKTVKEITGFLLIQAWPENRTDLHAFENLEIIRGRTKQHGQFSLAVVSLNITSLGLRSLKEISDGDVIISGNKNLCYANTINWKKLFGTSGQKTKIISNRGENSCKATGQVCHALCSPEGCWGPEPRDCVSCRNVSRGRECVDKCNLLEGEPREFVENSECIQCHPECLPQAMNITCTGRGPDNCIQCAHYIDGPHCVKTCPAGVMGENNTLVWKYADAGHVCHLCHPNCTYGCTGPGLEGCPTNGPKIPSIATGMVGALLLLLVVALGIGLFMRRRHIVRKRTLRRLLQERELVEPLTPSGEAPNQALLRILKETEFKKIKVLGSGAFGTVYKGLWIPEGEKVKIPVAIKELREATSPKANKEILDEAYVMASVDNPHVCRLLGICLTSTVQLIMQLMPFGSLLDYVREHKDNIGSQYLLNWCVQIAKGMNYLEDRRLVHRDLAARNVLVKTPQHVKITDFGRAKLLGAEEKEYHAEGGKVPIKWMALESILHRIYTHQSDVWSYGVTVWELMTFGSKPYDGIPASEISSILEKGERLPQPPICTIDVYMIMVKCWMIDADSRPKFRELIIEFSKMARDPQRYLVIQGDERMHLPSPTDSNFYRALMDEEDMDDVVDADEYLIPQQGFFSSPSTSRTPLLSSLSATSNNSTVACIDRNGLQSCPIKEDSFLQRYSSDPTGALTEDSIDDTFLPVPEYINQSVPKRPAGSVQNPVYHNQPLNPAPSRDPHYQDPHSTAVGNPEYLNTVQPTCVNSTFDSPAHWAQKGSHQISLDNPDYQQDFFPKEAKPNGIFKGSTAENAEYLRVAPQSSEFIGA
EGFR del19/T790M/C797S, sequence (P00533 with tags, fused parts or gaps DEL746-750/T790M/C797S): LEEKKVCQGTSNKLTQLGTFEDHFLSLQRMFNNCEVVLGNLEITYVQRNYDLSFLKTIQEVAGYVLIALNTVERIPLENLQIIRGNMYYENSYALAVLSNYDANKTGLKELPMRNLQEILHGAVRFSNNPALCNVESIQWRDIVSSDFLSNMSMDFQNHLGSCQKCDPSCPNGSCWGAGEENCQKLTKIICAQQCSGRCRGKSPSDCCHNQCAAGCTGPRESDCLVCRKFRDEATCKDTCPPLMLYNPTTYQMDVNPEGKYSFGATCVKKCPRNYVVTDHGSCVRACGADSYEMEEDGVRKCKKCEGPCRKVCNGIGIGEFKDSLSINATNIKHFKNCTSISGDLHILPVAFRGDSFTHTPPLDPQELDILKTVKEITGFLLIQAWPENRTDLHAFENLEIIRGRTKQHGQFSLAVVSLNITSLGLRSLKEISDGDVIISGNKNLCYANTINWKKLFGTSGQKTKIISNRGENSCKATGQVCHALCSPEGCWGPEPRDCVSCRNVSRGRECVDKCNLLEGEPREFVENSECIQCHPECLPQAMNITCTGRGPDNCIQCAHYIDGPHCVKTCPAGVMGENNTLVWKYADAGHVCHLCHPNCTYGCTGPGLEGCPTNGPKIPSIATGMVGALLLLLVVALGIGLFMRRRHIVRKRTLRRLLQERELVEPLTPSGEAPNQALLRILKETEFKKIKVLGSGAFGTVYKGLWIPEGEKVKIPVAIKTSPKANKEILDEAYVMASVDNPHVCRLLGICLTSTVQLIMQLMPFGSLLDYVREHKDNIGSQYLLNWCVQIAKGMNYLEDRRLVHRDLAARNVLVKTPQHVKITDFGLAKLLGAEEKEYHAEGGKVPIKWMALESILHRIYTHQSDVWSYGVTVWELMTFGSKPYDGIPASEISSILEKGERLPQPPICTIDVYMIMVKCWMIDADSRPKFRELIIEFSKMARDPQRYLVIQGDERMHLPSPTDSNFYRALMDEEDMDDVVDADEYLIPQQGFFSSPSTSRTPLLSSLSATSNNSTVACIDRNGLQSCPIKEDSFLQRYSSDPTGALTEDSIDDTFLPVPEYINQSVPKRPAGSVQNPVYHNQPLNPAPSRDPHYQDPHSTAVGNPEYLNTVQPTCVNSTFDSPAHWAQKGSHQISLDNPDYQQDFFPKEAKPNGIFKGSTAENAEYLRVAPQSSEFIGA
EGFR del19/C797S, sequence (P00533 with tags, fused parts or gaps DEL746-750/C797S): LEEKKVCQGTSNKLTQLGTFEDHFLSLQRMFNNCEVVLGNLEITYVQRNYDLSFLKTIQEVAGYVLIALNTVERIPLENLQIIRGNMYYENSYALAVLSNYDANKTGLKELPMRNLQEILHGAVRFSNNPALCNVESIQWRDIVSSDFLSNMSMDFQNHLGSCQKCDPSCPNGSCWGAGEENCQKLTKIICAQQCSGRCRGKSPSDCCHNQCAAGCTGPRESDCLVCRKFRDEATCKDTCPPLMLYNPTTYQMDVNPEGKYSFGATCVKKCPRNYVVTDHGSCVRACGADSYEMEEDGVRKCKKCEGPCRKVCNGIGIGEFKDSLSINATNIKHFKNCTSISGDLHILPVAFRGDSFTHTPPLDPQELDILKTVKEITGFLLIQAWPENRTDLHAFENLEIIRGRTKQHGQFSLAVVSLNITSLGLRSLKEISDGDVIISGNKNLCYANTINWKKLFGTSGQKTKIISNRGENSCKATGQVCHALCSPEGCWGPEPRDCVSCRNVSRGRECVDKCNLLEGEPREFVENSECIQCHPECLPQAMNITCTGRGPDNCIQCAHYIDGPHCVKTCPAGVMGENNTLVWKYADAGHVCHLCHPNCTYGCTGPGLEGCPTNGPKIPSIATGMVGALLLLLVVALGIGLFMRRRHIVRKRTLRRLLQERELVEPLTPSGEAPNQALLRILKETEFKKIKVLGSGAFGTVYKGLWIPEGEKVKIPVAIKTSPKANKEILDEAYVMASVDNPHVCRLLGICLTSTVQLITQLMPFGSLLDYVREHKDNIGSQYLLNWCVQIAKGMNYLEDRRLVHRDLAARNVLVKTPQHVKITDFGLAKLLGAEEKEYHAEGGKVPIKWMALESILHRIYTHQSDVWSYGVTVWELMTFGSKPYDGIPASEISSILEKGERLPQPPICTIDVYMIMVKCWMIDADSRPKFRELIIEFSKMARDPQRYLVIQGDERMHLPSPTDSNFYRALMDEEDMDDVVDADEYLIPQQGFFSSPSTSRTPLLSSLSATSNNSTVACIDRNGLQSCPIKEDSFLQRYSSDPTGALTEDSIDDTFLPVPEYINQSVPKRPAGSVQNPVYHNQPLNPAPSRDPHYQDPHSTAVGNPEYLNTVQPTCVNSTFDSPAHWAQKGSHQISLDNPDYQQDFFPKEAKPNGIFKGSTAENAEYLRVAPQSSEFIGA

In the case of `C[C@]1(O)CC[C@@H](Nc2cc(Nc3ccnc(-c4cnn(S(=O)(=O)C5CC5)c4)n3)nnc2-c2ccn(CC(F)(F)F)n2)CC1` [Example 374, (1s,4s)-4-((6-((2-(1-(Cyclopropylsulfonyl)-1H-pyrazol-4-yl)pyrimidin-4-yl)amino)-3-(1-(2,2,2-trifluoroethyl)-1H-pyrazol-3-yl)pyridazin-4-yl)amino)-1-methylcyclohexan-1-ol], the IC50 on EGFR del19/C797S (setting [1]) was determined as 241 nM; on EGFR wildtype (WT) (setting [2]), 1050 nM; at EGFR L858R/T790M/C797S (setting [3]), 0.6 nM; on EGFR del19/T790M/C797S (setting [4]), 0.3 nM; at EGFR L858R/C797S (setting [5]) it was 25.9 nM.
Turning to `CC1(O)CCC(Nc2cc(Nc3ccnc(N4CC(O)C(F)(F)C4)n3)ncc2-c2ccn(C(F)F)n2)CC1` (stereo not drawn) [Example 349, 1-(4-((5-(1-(Difluoromethyl)-1H-pyrazol-3-yl)-4-(((1s,4s)-4-hydroxy-4-methylcyclohexyl)amino)pyridin-2-yl)amino)pyrimidin-2-yl)-4,4-difluoropyrrolidin-3-ol], the IC50 on EGFR del19/C797S (IC50 del19/C797S, 100 μM ATP) is 276 nM; at EGFR del19/C797S (setting [1]), 53.7 nM; against EGFR wildtype (WT) (IC50 WT, 100 μM ATP), greater than 10000 nM; at EGFR wildtype (WT) (setting [2]) it was 189 nM; on EGFR L858R/T790M/C797S (IC50 L858R/T790M/C797S, 100 μM ATP) it was 2.8 nM; on EGFR L858R/T790M/C797S (setting [3]), 0.3 nM. In addition, the IC50 was found to be 1 nM at EGFR del19/T790M/C797S (IC50 del19/T790M/C797S, 100 μM ATP); 2.4 nM on EGFR del19/T790M/C797S (setting [4]); 304 nM at EGFR L858R/C797S (IC50 L858R/C797S, 100 μM ATP); 77.2 nM at EGFR L858R/C797S (setting [5]).
As to `Cc1ncc(-c2cnc(Nc3ccnc(-c4cnn(S(=O)(=O)C5CC5)c4)n3)cc2N[C@H]2CC[C@@H](O)CC2)s1` [Example 75, (1s,4s)-4-((2-((2-(1-(Cyclopropylsulfonyl)-1H-pyrazol-4-yl)pyrimidin-4-yl)amino)-5-(2-methylthiazol-5-yl)pyridin-4-yl)amino)cyclohexan-1-ol], the IC50 on EGFR del19/C797S (setting [6]) was 37.1 nM; on EGFR wildtype (WT) (setting [7]) it was greater than 10000 nM; against EGFR L858R/T790M/C797S (setting [8]), 16.8 nM; against EGFR del19/T790M/C797S (setting [9]) it was 1.1 nM; on EGFR L858R/C797S (setting [10]), 173 nM.
Regarding `O=S(=O)(C1CC1)n1cc(-c2nccc(Nc3cc(N[C@H]4CC[C@@H](C(F)F)CC4)c(-c4ccn(C(F)F)n4)cn3)n2)cn1` [Example 157, N^2-(2-(1-(Cyclopropylsulfonyl)-1H-pyrazol-4-yl)pyrimidin-4-yl)-5-(1-(difluoromethyl)-1H-pyrazol-3-yl)-N^4-((1s,4s)-4-(difluoromethyl)cyclohexyl)pyridine-2,4-diamine], the IC50 on EGFR del19/C797S (setting [11]) is 125 nM; at EGFR wildtype (WT) (setting [12]), 408 nM; at EGFR L858R/T790M/C797S (setting [13]) it was 9.7 nM; on EGFR del19/T790M/C797S (setting [14]), 30.9 nM; on EGFR L858R/C797S (setting [15]), 55.7 nM.
Regarding `O=S(=O)(C1CC1)n1cc(-c2nccc(Nc3cc(N[C@H]4CC[C@H](CCO)CC4)c(-c4ccn(CC(F)(F)F)n4)cn3)n2)cn1` [Example 270, 2-((1r,4r)-4-((2-((2-(1-(Cyclopropylsulfonyl)-1H-pyrazol-4-yl)pyrimidin-4-yl)amino)-5-(1-(2,2,2-trifluoroethyl)-1H-pyrazol-3-yl)pyridin-4-yl)amino)cyclohexyl)ethan-1-ol], the IC50 against EGFR del19/C797S (setting [6]) was 2700 nM; at EGFR del19/C797S (setting [11]), 23.6 nM; against EGFR wildtype (WT) (setting [7]), greater than 10000 nM; at EGFR wildtype (WT) (setting [12]), 620 nM; against EGFR L858R/T790M/C797S (setting [8]), 1.2 nM; at EGFR L858R/T790M/C797S (setting [13]), 0.7 nM. Also, the IC50 against EGFR del19/T790M/C797S (setting [9]) was determined as 2.1 nM; on EGFR del19/T790M/C797S (setting [14]), 7.2 nM; against EGFR L858R/C797S (setting [10]) it was 35.4 nM; on EGFR L858R/C797S (setting [15]) it was 11.2 nM.
For `Cn1ccc(-c2cnc(Nc3ccnc(-c4cnn(S(=O)(=O)C5CC5)c4)n3)cc2NC[C@H]2CC[C@@H](O)C2)n1` [Example 118, (1R,3S)-3-(((2-((2-(1-(Cyclopropylsulfonyl)-1H-pyrazol-4-yl)pyrimidin-4-yl)amino)-5-(1-methyl-1H-pyrazol-3-yl)pyridin-4-yl)amino)methyl)cyclopentan-1-ol], the IC50 against EGFR del19/C797S (setting [6]) came out at 0.2 nM; on EGFR del19/C797S (setting [11]) it was 0.3 nM; against EGFR wildtype (WT) (setting [7]) it was 1320 nM; at EGFR wildtype (WT) (setting [12]), 4.9 nM; against EGFR L858R/T790M/C797S (setting [8]) it was 0.3 nM; at EGFR L858R/T790M/C797S (setting [13]) it was 0.1 nM. Further, the IC50 was 0.2 nM against EGFR del19/T790M/C797S (setting [9]), 0.2 nM at EGFR del19/T790M/C797S (setting [14]), 3.6 nM on EGFR L858R/C797S (setting [10]) and 0.2 nM at EGFR L858R/C797S (setting [15]).
